From US20230346823A1, “UTILIZATION OF VITAMIN B12 IN INHIBITING RENAL DISORDER” (Niigata University, priority 2020, published 2023)

Legend:
transcobalamin 2 (TCN2) [1] = molecular target: T1, transcobalamin 2 (TCN2) (Rattus norvegicus, UniProt Q9R0D6); test: Binding of TCN2 to iomeprol-immobilized magnetic beads, Western blotting with anti-TCN2 antibody; details: feed concentrations 0, 3 and 10 mM, 25 ng/µL TCN2, 4° C., 4 hours, FIG. 5
T1 construct: purchased LifeSpan BioSciences, Inc
T1 sequence (Q9R0D6 19-427): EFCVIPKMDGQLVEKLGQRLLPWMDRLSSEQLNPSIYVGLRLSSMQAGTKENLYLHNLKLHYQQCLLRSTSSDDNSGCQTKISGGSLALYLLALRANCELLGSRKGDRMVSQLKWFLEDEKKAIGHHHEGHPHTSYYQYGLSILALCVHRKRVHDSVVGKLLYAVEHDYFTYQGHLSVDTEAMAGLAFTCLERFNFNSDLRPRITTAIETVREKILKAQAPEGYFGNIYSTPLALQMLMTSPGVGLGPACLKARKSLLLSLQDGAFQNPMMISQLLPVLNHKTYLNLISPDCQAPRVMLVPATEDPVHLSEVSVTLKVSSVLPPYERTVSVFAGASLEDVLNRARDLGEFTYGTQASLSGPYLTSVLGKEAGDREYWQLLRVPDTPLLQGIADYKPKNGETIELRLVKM
Method: The bulk of iodinated contrast medium was dissolved, just before use, in a solvent in which glycidylmethacrylate-coated magnetic beads (FG beads®, particle size: 0.2 µm, produced by Tamagawa Seiki Co., Ltd.) were dispersed, to initiate chemical bonding between […] present on the surface of the magnetic beads and hydroxyl groups in the contrast medium, whereby contrast medium-immobilized magnetic beads were prepared.
The iodinated contrast medium used was the bulk of iomeprol. At feed concentrations of 0 mM, 3 mM and 10 mM, the iodinated contrast medium was immobilized by chemical bonding. The preparation of the iomeprol-immobilized beads was conducted by Tamagawa Seiki Co., Ltd. […]
The TCN2-containing samples were subjected to SDS-polyacrylamide electrophoresis under reducing conditions using 4-15% gradient gels (produced by Bio-Rad Laboratories), and the developed samples were transferred onto polyvinylidene fluoride (PVDF) membranes. […] Then, bands were detected using chemiluminescent substrate for western blotting (SuperSignal™ West Femto Maximum Sensitivity Substrate; Thermo Scientific™).

transcobalamin 2 (TCN2) [2] = molecular target: T1, transcobalamin 2 (TCN2); test: Competition against binding of TCN2 to contrast medium-immobilized beads, Western blotting; details: 25 ng/µL TCN2 + test substance; contrast medium beads (iomeprol, ioversol, iodixanol, iopromide, iohexol) at 10 mM feed; FIG. 6 to FIG. 10
Source text: Iodinated contrast media used were the bulk of iomeprol, the bulk of ioversol, the bulk of iodixanol, the bulk of iopromide, and the bulk of iohexol. Evaluations were made using these solid-phased beads.
For test chemicals for competing with the binding, vitamin B12 (cyanocobalamin, methylcobalamin, or hydroxocobalamin), cilastatin, and iomeprol (iodinated contrast medium) were used. Cilastatin and iomeprol are positive controls of inhibition.
The solution/beads combinations adopted were as mentioned below. • Solution a) + contrast medium-immobilized beads prepared at 0 mM contrast medium feed concentration (control) • Solution a) + contrast medium-immobilized beads prepared at 10 mM contrast medium feed concentration (no competition) • Solution b) + contrast medium-immobilized beads prepared at 10 mM contrast medium feed concentration (competition with vitamin B12, iomeprol, or cilastatin)

megalin [3] = molecular target: megalin (Mus musculus, UniProt A2ARV4); details: described in PTL 1; cited from earlier work
[4] = system: renal proximal tubular epithelial cells; test: Internalization of iodinated contrast medium into kidney cortex, iodine/nitrogen ratio by EPMA; type: in vivo, C57BL/6J mice; details: 100 µL iomeprol + 100 µL of 1 mg/mL cyanocobalamin, tail vein; kidneys 3 hours later; vs iomeprol + normal saline control; t-test; FIG. 1
Method: The prepared sections were analyzed by EPMA (EPMA1610; Shimadzu Ltd, Kyoto, Japan) by following the procedure described below to examine whether there is a difference in the internalization of a contrast medium between the contrast medium + vitamin B12-treated group and the contrast medium + normal saline-treated group.
EPMA is an electron microprobe (EMP) instrument that analyzes the constituent elements of a substance of interest by irradiating electron beams onto the substance and measuring the wavelengths and intensities of characteristic X-rays unique to the different elements, which are generated by the electron beams. The iodine content in sections can be determined by EMP analysis (Norby, et al., Scanning Microsc, 1990, vol.4, p.651-666). […] The behaviors of iodinated contrast media per se can be verified by analyzing iodine content distribution.
The “thin-film quantification” technique can be applied for analysis of biological samples such as kidney tissue sections. […]
Therefore, by calculating a ratio of characteristic X-ray intensity between iodine (I) and nitrogen (N) (I/N) in a specified area of biological samples, iodine (I) in different samples can be relatively quantified and compared.
Based on this principle, the sections obtained by the above experiment were analyzed by EPMA, and iodine in a specified area was relatively quantified and compared among the samples. […]

C57BL/6J mice = test: Contrast-induced renal injury model (left nephrectomy, ischemia-reperfusion, then iomeprol); details: 200 µL iomeprol + 100 µL of 1 mg/mL cyanocobalamin, vs iomeprol + normal saline
Method: Left kidneys were extracted from the C57BL/6J mice, and 14 days later, right kidney pedicles were ligated for 30 minutes. Thereafter, reperfusion was carried out. After 24 hours from the start of reperfusion, the C57BL/6J mice were divided into the following groups and administered with the following agents from the tail vein. • a) Contrast medium + vitamin B12-treated group: 200 µL of iomeprol + 100 µL of 1 mg/mL of cyanocobalamin solution • b) Contrast medium + normal saline-treated group (control): 200 µL of iomeprol + 100 µL of normal saline
For each of the groups, 24 hours before anatomizing, urine samples were collected using a metabolic cage, the mice were anatomized after 48 hours from the medication, then urinary kidney injury molecule-1 (KIM-1) was measured. Urinary KIM-1 measurements were conducted by Oriental Yeast Co., Ltd.
Further, right kidneys were extracted and histologically evaluated by immunostaining with KIM-1. To be specific, 3 mm-thick sections containing a kidney pedicle portion were prepared from the right kidneys, fixed with 4% paraformaldehyde phosphate buffer, sliced at a thickness of 4 µm using a microtome (REM-710; Yamato Kohki Industrial Co., Ltd.), and the obtained thin slices were immunostained with the renal injury marker KIM-1. The immunostaining was performed using VECTASTAIN Elite ABC Kit (Vector Laboratories, Inc.). […]

megalin [5] = molecular target: T2, megalin (Rattus norvegicus, UniProt P98158); test: Quartz crystal microbalance (QCM) binding of transcobalamin 2 to immobilized megalin; set-up: species or system Sprague-Dawley (SD) rat; details: 1.5 µg recombinant rat transcobalamin 2 injected on megalin-immobilized quartz crystals; BSA control decreased only 20 to 30 Hz; FIG. 4
T2 construct: megalin purified from Sprague-Dawley (SD) rat kidneys; from tissue; host or cells: Sprague-Dawley rat kidneys (megalin purified by the method of Orlando et al.); TCN2 purchased from LifeSpan BioSciences
Method: According to the method of Orlando, et al., megalin purified from Sprague-Dawley (SD) rat kidneys was immobilized on quartz crystals. To be specific, with the use of an immobilization kit for AFFINIX® (Initium Inc.) according to the recommended protocol for the kit, a megalin solution was prepared in Buffer A as provided with the kit to a concentration of 62.5 µg/mL, and placed and immobilized on the quartz crystals mounted in a holder.
After the megalin-immobilized quartz crystals were mounted in the measurement instrument AFFINIX® Q8 (Initium Inc.) and the frequency was confirmed to be stable, recombinant rat transcobalamin 2 proteins (TCN2 LifeSpan Bio Sciences, Inc.) (1.5 µg) were injected (in total injection volume) to measure frequency over time. More specifically, after the megalin-immobilized quartz crystals were immersed in 200 µL of buffer and the frequency was confirmed to be stable, transcobalamin 2 was injected and frequency was measured. The same measurement was done on quartz crystals, as a control, on which the same amount of bovine serum albumin (BSA) was immobilized instead of megalin, and the specific binding ability of transcobalamin 2 to megalin was analyzed.

megalin (Mus musculus, UniProt A2ARV4), sequence (A2ARV4 26-4660): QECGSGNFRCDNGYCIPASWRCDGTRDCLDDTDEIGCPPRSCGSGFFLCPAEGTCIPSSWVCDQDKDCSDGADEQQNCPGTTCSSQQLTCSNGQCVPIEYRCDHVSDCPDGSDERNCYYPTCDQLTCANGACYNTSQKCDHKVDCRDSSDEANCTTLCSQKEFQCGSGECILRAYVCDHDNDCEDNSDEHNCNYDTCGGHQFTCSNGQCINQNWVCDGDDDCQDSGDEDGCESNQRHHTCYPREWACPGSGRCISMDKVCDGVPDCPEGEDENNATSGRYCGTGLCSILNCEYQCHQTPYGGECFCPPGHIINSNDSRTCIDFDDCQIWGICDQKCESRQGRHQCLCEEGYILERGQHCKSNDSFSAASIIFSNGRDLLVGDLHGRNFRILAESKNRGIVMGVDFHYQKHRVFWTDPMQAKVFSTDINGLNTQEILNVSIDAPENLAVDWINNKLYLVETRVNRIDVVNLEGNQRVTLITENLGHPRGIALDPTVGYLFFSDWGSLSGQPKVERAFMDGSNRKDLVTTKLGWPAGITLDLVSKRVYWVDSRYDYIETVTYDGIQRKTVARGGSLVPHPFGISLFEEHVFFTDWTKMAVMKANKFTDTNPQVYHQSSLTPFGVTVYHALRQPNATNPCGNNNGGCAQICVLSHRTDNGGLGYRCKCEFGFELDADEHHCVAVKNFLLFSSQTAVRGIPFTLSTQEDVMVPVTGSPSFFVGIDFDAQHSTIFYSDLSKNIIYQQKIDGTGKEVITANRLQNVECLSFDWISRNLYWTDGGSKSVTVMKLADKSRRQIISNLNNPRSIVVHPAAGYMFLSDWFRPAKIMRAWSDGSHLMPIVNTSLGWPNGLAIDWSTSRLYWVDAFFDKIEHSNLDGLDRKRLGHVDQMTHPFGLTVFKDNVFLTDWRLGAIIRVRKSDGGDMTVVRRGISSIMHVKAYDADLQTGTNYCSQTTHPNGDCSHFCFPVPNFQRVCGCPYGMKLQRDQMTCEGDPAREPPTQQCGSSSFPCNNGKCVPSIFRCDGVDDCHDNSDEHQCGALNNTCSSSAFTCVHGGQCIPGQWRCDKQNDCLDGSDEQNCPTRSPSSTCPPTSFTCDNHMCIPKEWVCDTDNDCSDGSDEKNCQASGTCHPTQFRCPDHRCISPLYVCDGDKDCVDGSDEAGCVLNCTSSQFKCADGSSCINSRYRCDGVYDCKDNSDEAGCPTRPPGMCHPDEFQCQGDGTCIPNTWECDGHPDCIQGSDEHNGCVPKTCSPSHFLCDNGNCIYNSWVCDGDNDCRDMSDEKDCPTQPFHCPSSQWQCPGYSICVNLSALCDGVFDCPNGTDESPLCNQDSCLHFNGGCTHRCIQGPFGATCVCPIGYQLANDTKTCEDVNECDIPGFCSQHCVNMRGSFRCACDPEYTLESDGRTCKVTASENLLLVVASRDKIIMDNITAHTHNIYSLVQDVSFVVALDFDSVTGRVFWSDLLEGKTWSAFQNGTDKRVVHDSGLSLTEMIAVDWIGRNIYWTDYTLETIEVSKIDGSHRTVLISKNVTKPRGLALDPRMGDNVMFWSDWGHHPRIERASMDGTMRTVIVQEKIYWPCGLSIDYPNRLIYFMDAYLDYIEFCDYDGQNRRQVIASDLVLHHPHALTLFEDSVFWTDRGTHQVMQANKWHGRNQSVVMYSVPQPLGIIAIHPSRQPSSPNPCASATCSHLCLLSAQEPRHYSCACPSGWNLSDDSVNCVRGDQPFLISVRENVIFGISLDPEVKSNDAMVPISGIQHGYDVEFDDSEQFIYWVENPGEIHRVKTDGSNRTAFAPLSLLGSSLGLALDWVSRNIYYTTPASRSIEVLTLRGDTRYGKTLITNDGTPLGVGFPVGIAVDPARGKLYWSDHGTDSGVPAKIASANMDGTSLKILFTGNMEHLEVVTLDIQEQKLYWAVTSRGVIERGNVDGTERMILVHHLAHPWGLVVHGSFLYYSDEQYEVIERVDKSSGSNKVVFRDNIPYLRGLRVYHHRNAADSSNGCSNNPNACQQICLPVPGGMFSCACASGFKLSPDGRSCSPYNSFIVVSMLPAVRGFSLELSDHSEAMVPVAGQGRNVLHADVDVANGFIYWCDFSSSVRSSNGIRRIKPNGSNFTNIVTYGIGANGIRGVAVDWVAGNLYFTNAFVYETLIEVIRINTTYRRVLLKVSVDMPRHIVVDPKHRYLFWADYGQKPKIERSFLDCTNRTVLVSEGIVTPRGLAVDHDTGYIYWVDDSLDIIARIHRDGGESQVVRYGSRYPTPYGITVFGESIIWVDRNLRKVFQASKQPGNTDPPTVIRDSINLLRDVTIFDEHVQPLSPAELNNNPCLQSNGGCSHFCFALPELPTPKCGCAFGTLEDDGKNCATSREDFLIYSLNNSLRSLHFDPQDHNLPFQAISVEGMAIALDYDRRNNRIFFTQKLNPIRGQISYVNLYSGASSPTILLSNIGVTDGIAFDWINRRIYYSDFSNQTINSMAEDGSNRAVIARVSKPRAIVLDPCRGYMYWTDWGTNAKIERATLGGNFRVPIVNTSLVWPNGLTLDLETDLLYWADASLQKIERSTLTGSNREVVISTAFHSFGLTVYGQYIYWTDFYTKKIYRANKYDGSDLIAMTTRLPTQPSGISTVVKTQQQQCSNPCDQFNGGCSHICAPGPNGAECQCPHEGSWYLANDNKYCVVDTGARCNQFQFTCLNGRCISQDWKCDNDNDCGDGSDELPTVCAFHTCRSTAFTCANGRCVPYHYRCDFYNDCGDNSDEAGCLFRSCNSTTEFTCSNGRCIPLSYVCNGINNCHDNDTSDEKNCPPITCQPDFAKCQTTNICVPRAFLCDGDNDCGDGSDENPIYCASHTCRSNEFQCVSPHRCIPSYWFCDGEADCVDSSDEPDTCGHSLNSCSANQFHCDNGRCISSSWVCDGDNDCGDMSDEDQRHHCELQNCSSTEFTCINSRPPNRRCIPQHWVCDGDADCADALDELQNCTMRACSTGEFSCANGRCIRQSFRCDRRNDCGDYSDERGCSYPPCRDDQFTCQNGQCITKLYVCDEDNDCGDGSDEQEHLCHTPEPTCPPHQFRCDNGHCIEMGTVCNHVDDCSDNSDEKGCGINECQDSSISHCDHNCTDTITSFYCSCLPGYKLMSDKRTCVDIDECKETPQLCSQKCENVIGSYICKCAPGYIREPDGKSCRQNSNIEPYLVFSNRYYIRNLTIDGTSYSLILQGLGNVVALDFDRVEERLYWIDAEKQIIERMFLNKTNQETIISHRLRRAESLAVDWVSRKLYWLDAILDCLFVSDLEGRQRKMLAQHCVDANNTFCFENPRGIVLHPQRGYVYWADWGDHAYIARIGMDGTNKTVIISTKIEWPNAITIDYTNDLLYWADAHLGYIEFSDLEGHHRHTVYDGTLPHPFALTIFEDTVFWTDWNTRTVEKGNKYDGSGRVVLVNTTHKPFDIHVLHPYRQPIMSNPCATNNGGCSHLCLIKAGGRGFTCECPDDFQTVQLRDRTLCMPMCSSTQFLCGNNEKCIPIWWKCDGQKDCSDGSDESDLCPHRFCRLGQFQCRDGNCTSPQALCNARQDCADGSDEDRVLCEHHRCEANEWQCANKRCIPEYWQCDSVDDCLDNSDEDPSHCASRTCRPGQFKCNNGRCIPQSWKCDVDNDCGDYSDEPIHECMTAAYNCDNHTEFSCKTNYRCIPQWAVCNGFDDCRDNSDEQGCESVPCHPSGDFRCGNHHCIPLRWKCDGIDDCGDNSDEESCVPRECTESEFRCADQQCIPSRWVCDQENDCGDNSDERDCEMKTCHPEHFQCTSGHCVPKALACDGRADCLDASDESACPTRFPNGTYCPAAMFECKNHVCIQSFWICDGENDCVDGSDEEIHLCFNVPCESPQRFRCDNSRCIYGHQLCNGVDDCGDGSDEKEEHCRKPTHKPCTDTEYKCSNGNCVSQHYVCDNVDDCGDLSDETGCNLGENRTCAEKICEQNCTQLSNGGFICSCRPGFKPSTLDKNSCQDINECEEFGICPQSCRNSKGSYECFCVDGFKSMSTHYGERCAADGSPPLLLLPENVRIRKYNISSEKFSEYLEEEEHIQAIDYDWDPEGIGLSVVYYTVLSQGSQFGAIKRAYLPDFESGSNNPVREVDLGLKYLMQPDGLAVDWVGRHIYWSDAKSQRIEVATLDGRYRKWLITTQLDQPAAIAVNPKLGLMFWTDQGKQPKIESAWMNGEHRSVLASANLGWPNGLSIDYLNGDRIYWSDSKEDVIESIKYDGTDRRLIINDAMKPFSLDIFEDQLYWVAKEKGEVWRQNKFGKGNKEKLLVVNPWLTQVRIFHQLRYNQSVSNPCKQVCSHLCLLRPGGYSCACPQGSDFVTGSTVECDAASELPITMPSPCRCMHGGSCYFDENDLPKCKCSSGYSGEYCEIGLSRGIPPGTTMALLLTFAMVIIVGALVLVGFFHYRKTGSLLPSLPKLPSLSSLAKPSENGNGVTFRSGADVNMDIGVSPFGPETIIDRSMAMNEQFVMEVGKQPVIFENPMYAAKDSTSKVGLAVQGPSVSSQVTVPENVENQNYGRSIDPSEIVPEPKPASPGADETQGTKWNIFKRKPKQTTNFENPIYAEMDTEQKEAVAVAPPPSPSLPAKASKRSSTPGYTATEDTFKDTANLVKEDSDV

Molecule: CN(C(=O)CO)c1c(I)c(C(=O)NCC(O)CO)c(I)c(C(=O)NCC(O)CO)c1I (stereo not drawn) [iomeprol]
- intensity of TCN2 band from heat-eluted samples (transcobalamin 2 (TCN2) [1]): intensity of the band corresponding to TCN2 from heat-eluted samples was increased
- TCN2 bands by competition with test substance (transcobalamin 2 (TCN2) [2]): concentration-dependent decrease in TCN2 bands

Molecule: C/C1=C2/[N-][C@H]([C@H](CC(N)=O)[C@@]2(C)CCC(=O)NC[C@H](C)OP(=O)([O-])O[C@H]2[C@@H](O)[C@@H](n3cnc4cc(C)c(C)cc43)O[C@@H]2CO)[C@]2(C)N=C(/C(C)=C3N=C(/C=C4N=C1[C@@H](CCC(N)=O)C\4(C)C)[C@@H](CCC(N)=O)[C@]\3(C)CC(N)=O)[C@@H](CCC(N)=O)[C@]2(C)CC(N)=O.[CH3-].[Co+3] [methylcobalamin]
- TCN2 bands by competition with test substance (transcobalamin 2 (TCN2) [2]): concentration-dependent decrease in TCN2 bands

Molecule: CC1(C)C[C@@H]1C(=O)N/C(=C\CCCCSC[C@H](N)C(=O)O)C(=O)O [cilastatin, (Z)-7-[[(R)-2-Amino-2-carboxyethyl]thio]-2-[[[(S)-2,2-dimethylcyclopropyl]carbonyl]amino]-2-heptenoic acid]
- TCN2 bands by competition with test substance (transcobalamin 2 (TCN2) [2]): concentration-dependent decrease in TCN2 bands
- megalin-dependent internalization of iodinated contrast media into renal proximal tubular epithelial cells (megalin [3]): inhibits
- renal injuries (megalin [3]): inhibits renal injuries

Molecule: C/C1=C2/[N-][C@H]([C@H](CC(N)=O)[C@@]2(C)CCC(=O)NC[C@@H](C)OP(=O)([O-])O[C@H]2[C@@H](O)[C@@H](n3cnc4cc(C)c(C)cc43)O[C@@H]2CO)[C@]2(C)N=C(/C(C)=C3N=C(/C=C4N=C1[C@@H](CCC(N)=O)C\4(C)C)[C@@H](CCC(N)=O)[C@]\3(C)CC(N)=O)[C@@H](CCC(N)=O)[C@]2(C)CC(N)=O.[Co+3].[OH-] [hydroxocobalamin]
- TCN2 bands by competition with test substance (transcobalamin 2 (TCN2) [2]): concentration-dependent decrease in TCN2 bands

Molecule: cyanocobalamin
- I/N X-ray ratio (iodine/nitrogen) in kidney cortex areas [4]: significantly (t-test) lower
- TCN2 bands by competition with test substance (transcobalamin 2 (TCN2) [2]): concentration-dependent decrease in TCN2 bands
- expression of KIM-1 in outer cortex (immunostaining) (C57BL/6J mice; tail vein, 48 hours after medication, FIG. 2): expression of KIM-1 was decreased
- PAS staining, vacuoles degeneration (injury finding) in kidney cortex (C57BL/6J mice; FIG. 3): did not have such an injury finding

B1: transcobalamin 2: Recombinant rat transcobalamin 2 protein, a transport protein for vitamin B12 (about 45 kDa) (protein, UniProt Q9R0D6 19-427, looked up)
Transcobalamin-2: EFCVIPKMDGQLVEKLGQRLLPWMDRLSSEQLNPSIYVGLRLSSMQAGTKENLYLHNLKLHYQQCLLRSTSSDDNSGCQTKISGGSLALYLLALRANCELLGSRKGDRMVSQLKWFLEDEKKAIGHHHEGHPHTSYYQYGLSILALCVHRKRVHDSVVGKLLYAVEHDYFTYQGHLSVDTEAMAGLAFTCLERFNFNSDLRPRITTAIETVREKILKAQAPEGYFGNIYSTPLALQMLMTSPGVGLGPACLKARKSLLLSLQDGAFQNPMMISQLLPVLNHKTYLNLISPDCQAPRVMLVPATEDPVHLSEVSVTLKVSSVLPPYERTVSVFAGASLEDVLNRARDLGEFTYGTQASLSGPYLTSVLGKEAGDREYWQLLRVPDTPLLQGIADYKPKNGETIELRLVKM
- decrease of QCM frequency (megalin [5]): about 200 Hz
